{
  "source": "PubChem BioAssay AID2060883",
  "about": "(Molecular Pharmacology Branch, DTP, NCI, 2025);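 note: viability read after seven days of compound exposure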",
  "tested_on": "843782-103-R-J1-PDC complex spheroid viability",
  "assay": "Anticancer human tumor 843782-103-R-J1-PDC patient-derived lung adenocarcinoma cell line growth inhibition [RAS]",
  "details": "for IC50: curve of first compound; for viability, T/C: stronger effect = lower value",
  "excerpt": "RAS pathway inhibitors in Combinations in Complex Spheroids\nA high-throughput screen of multi-cell type tumor spheroids was designed to identify active combinations of RAS pathway inhibitors and targeted small molecules. Complex spheroids include a stromal component modeled by human endothelial cells (HUVEC) and fibroblasts modeled by human mesenchymal stem cells (MSCs). The concentration ranges selected for each drug and investigational agent were based upon clinically achievable concentrations if the clinical Cmax of the agent was known.\nCompounds. The drugs and investigational agents: abemaciclib (NSC768073), cobimetinib (NSC768068), divarasib (GDC6063, NSC841802), docetaxel (NSC628503), GDC-1971 (RLY-1971, NSC841576), gemcitabine (NSC613327), inavolisib (NSC800729), ipatasertib (NSC767898), KB-0742 (NSC834161), MRTX-1133 (NSC836407), osimertinib (NSC779217), RMC-4630 (NSC839698), RMC-6236 (NSC851965), RMC-6291 (NSC852671), Ro-3306 (NSC812927), sapanisertib (NSC764658), SN-38 (NSC673596), staurosporine (NSC755774), SY5609 (NSC837396), and tovorafenib (DAY101, NSC766906), were obtained from the National Cancer Institute (NCI) Developmental Therapeutics Program Chemical Repository. The FDA-approved anticancer drug set is available from the NCI Developmental Therapeutics Program. […] The stock solutions were prepared in dimethyl sulfoxide (DMSO, Sigma-Aldrich, St. Louis, MO, cat. D2650) at 800-fold the tested concentration and stored at -70 degrees C prior to their use. All drugs and investigational agents were tested over a range starting from a high concentration at or near the clinical Cmax and decreasing in half-log increments. If the clinical Cmax for an agent had not been determined, the highest concentration tested was 10 microM.\nCell Culture. All cells were maintained in an incubator at 37 degrees C and 5% CO2 with 95% humidity. The PDC lines were cultured according to standard operating procedures established by the NCI PDMR. All PDCs were thawed and cultured in Matrigel-coated flasks prepared with a working solution of 1X Ham's F-12 nutrient mix, without supplementation (Invitrogen, Waltham, MA, cat. 11765054), 100 U/mL penicillin-streptomycin (Invitrogen, cat. 15140122), and 2.5% Matrigel (Corning Inc., Corning, NY, cat. 354248) for the first three passages. The 362531-283-R-J2-PDC and 782815-120-R-J1-PDC lines were cultured in 6C/Colon 1B media, which includes advanced DMEM/F-12 (Thermo Fisher Scientific, cat. 12634028), 10 mM HEPES (Thermo Fisher Scientific, cat. 15630080), 1X GlutaMAX supplement (Thermo Fisher Scientific, cat. 35050061), 0.1 mg/mL primocin (InvivoGen, San Diego, CA, cat. ant-pm-2), 10% defined fetal bovine serum, heat inactivated (HyClone Laboratories Inc., Logan, UT, cat. SH30070.03HI), 50% L-WRN conditioned media (ATCC, cat. CRL-3276), 1.25 mM N-Acetyl-L-cysteine (Sigma-Aldrich, cat. A9165), 10 mM nicotinamide (Sigma-Aldrich, cat. N0636), 1X B-27 supplement (Thermo Fisher Scientific, cat. 17504044), 1X N-2 supplement (Thermo Fisher Scientific, cat. 17502048), 50 ng/mL human EGF (Thermo Fisher Scientific, cat. PHG0311), and 10 microM Y-27632 dihydrochloride (Tocris Bioscience, cat. 1254). The K12877-001-R-J1-PDC line was cultured in 6I media, which includes all 6C/Colon 1B media plus 10 ng/mL human FGF-10 (PeproTech, cat. 100-26), 1 ng/mL human FGF-2 (PeproTech, cat. 100-18B), 1 µM prostaglandin E2 (Tocris Bioscience, cat. 2296), […] hydrocortisone (Sigma-Aldrich, cat. H4001), and […] bovine insulin (Sigma-Aldrich, cat. I6634). The K86415-001-R-J1-PDC line was cultured in 6D media, which includes all 6C/Colon 1B media components minus the L-WRN conditioned media. The 485176-168-R4-J1-PDC was cultured in PANC media, which includes all 6C/Colon 1B media plus 100 ng/mL human FGF-10 (PeproTech, cat. 100-26), 500 nM SB-431542 (Selleckchem, cat. S1067), and 10 nM gastrin (Tocris Bioscience, cat. 3006). […]",
  "data": [
    {"smiles": "CCC(CC)c1cc(NC2CCC(N)C2)n2nccc2n1", "note": "(configuration not stated) + C#Cc1c(F)ccc2cc(O)cc(-c3ncc4c(N5CC6CCC(C5)N6)nc(OCC56CCCN5CC(F)C6)nc4c3F)c12", "values": [
      {"measurement": "IC50", "setting": "second compound 0.0316 µM", "value": 1850, "unit": "nM"},
      {"measurement": "IC50", "setting": "second compound 0.1 µM", "value": 1900, "unit": "nM"},
      {"measurement": "IC50", "setting": "second compound 0.316 µM", "value": 1820, "unit": "nM"},
      {"measurement": "IC50", "setting": "second compound 1 µM", "value": 1740, "unit": "nM"},
      {"measurement": "IC50", "setting": "second compound 3.16 µM", "value": 1260, "unit": "nM"},
      {"measurement": "IC50", "setting": "second compound 10 µM", "value": 642, "unit": "nM"},
      {"measurement": "viability, T/C", "setting": "second compound 0.0316 µM, first compound 0.0316 µM", "value": 107, "unit": "%"},
      {"measurement": "viability, T/C", "setting": "second compound 0.0316 µM, first compound 0.1 µM", "value": 102, "unit": "%"},
      {"measurement": "viability, T/C", "setting": "second compound 0.0316 µM, first compound 0.316 µM", "value": 100, "unit": "%"},
      {"measurement": "viability, T/C", "setting": "second compound 0.0316 µM, first compound 1 µM", "value": 108, "unit": "%"},
      {"measurement": "viability, T/C", "setting": "second compound 0.0316 µM, first compound 3.16 µM", "value": 2.66, "unit": "%"},
      {"measurement": "viability, T/C", "setting": "second compound 0.0316 µM, first compound 10 µM", "value": 0.77, "unit": "%"},
      {"measurement": "viability, T/C", "setting": "second compound 0.1 µM, first compound 0.0316 µM", "value": 112, "unit": "%"},
      {"measurement": "viability, T/C", "setting": "second compound 0.1 µM, first compound 0.1 µM", "value": 105, "unit": "%"},
      {"measurement": "viability, T/C", "setting": "second compound 0.1 µM, first compound 0.316 µM", "value": 114, "unit": "%"},
      {"measurement": "viability, T/C", "setting": "second compound 0.1 µM, first compound 1 µM", "value": 111, "unit": "%"},
      {"measurement": "viability, T/C", "setting": "second compound 0.1 µM, first compound 3.16 µM", "value": 2.16, "unit": "%"},
      {"measurement": "viability, T/C", "setting": "second compound 0.1 µM, first compound 10 µM", "value": 0.62, "unit": "%"},
      {"measurement": "viability, T/C", "setting": "second compound 0.316 µM, first compound 0.0316 µM", "value": 113, "unit": "%"},
      {"measurement": "viability, T/C", "setting": "second compound 0.316 µM, first compound 0.1 µM", "value": 109, "unit": "%"},
      {"measurement": "viability, T/C", "setting": "second compound 0.316 µM, first compound 0.316 µM", "value": 99.4, "unit": "%"},
      {"measurement": "viability, T/C", "setting": "second compound 0.316 µM, first compound 1 µM", "value": 102, "unit": "%"},
      {"measurement": "viability, T/C", "setting": "second compound 0.316 µM, first compound 3.16 µM", "value": 2.35, "unit": "%"},
      {"measurement": "viability, T/C", "setting": "second compound 0.316 µM, first compound 10 µM", "value": 0.68, "unit": "%"},
      {"measurement": "viability, T/C", "setting": "second compound 1 µM, first compound 0.0316 µM", "value": 89.2, "unit": "%"},
      {"measurement": "viability, T/C", "setting": "second compound 1 µM, first compound 0.1 µM", "value": 98, "unit": "%"},
      {"measurement": "viability, T/C", "setting": "second compound 1 µM, first compound 0.316 µM", "value": 96.7, "unit": "%"},
      {"measurement": "viability, T/C", "setting": "second compound 1 µM, first compound 1 µM", "value": 95.2, "unit": "%"},
      {"measurement": "viability, T/C", "setting": "second compound 1 µM, first compound 3.16 µM", "value": 1.42, "unit": "%"},
      {"measurement": "viability, T/C", "setting": "second compound 1 µM, first compound 10 µM", "value": 0.57, "unit": "%"},
      {"measurement": "viability, T/C", "setting": "second compound 3.16 µM, first compound 0.0316 µM", "value": 86.4, "unit": "%"},
      {"measurement": "viability, T/C", "setting": "second compound 3.16 µM, first compound 0.1 µM", "value": 83.9, "unit": "%"},
      {"measurement": "viability, T/C", "setting": "second compound 3.16 µM, first compound 0.316 µM", "value": 91.3, "unit": "%"},
      {"measurement": "viability, T/C", "setting": "second compound 3.16 µM, first compound 1 µM", "value": 62.4, "unit": "%"},
      {"measurement": "viability, T/C", "setting": "second compound 3.16 µM, first compound 3.16 µM", "value": 2.2, "unit": "%"},
      {"measurement": "viability, T/C", "setting": "second compound 3.16 µM, first compound 10 µM", "value": 0.56, "unit": "%"},
      {"measurement": "viability, T/C", "setting": "second compound 10 µM, first compound 0.0316 µM", "value": 67.2, "unit": "%"},
      {"measurement": "viability, T/C", "setting": "second compound 10 µM, first compound 0.1 µM", "value": 59.9, "unit": "%"},
      {"measurement": "viability, T/C", "setting": "second compound 10 µM, first compound 0.316 µM", "value": 64.2, "unit": "%"},
      {"measurement": "viability, T/C", "setting": "second compound 10 µM, first compound 1 µM", "value": 41.5, "unit": "%"},
      {"measurement": "viability, T/C", "setting": "second compound 10 µM, first compound 3.16 µM", "value": 0.51, "unit": "%"},
      {"measurement": "viability, T/C", "setting": "second compound 10 µM, first compound 10 µM", "value": 0.22, "unit": "%"}
    ]}
  ]
}
